Measured values reported in US8883759B2, “Anti-tumor effect potentiator” (Taiho Pharmaceutical Co., Ltd., priority 2009, dated 2014).
pIC50: −log10 of the molar value.

Columns and labels:
[1] = biological target: human dUTPase (Homo sapiens (Human), UniProt P33316); test: Human dUTPase inhibitory effect ([5-3H]dUMP production from [5-3H]dUTP); format: biochemical
Protocol: The inhibitory activity of these compounds of the present invention against human dUTPase was determined by measuring the production of [5-^3H]deoxyuridine monophosphate (hereinafter, referred to as [5-^3H]dUMP) from [5-^3H]deoxyuridine triphosphate (hereinafter, referred to as [5-^3H]dUTP) according to a method shown below.
Specifically, 0.2 mL in total of a solution containing 0.02 mL of 1 μM dUTP (including 588 Bq/mL [5-^3H]dUTP), 0.05 mL of a 0.2 M Tris buffer solution (pH 7.4), 0.05 mL of 16 mM magnesium chloride, 0.02 mL of 20 mM 2-mercaptoethanol, 0.02 mL of a 1% aqueous solution of fetal bovine serum-derived albumin, 0.02 mL of varying concentrations of test compound solutions or pure water as a control, and 0.02 mL of a solution of human dUTPase, which is expressed in E. coli and then purified, was incubated at 37° C. for 15 minutes. After the incubation, the solution was heated at 100° C. for 1 minute to terminate the reaction, followed by centrifugation at 15000 rpm for 2 minutes. An aliquot (150 μL) of the supernatant obtained by centrifugation was analyzed using an Atlantis dC18 column (manufactured by Waters Corp., 4.6×250 mm) and a high-performance liquid chromatograph (manufactured by Shimadzu Corp., Prominence). […]
The inhibitory activity of the test compound was determined according to the formula shown below. […]

[2] = tested on: human breast cancer cell line MX-1; test: Enhancing activity for anti-tumor effect of TS-1 in nude mice with transplanted MX-1 (Test Example 2); format: in vivo, BALB/cA Jcl-nu mice; conditions: 200 mg/kg/day test drug + TS-1 8.3 mg/kg/day, oral, 14 days; MX-1 in nude mice; T/C on day 15 (FIG. 1)
Protocol: A human breast cancer cell line MX-1 was transplanted into the right-sided chest of 5- to 6-week-old male BALB/cA Jcl-nu mice. After transplantation, the major axis (mm) and minor axis (mm) of the tumor were measured, and the tumor volume (TV) was estimated by calculation. Using MiSTAT group separation program, the mice were then divided into individual groups so that the mean TV of each group is to be equal. The date at which mice were divided into the groups (n=5) was defined as day 0.
A test solution for tegafur/gimeracil/oteracil potassium (TS-1, manufactured by Taiho Pharmaceutical Co., Ltd.) single administration group, containing 0.5% hydroxypropylmethyl cellulose, 2.5% dimethylacetamide, 2.5% Tween 80, and 10% Cremophor as final concentrations, was prepared, provided at 8.3 mg/kg/day. The dose of TS-1 was represented by the amount of tegafur (FT). […]
TV on day 15 was measured, and relative tumor volume (RTV) was calculated. Then, T/C (%) was calculated according to a formula described below, and an anti-tumor effect was evaluated. […]

Sequence of human dUTPase (P33316 94-252): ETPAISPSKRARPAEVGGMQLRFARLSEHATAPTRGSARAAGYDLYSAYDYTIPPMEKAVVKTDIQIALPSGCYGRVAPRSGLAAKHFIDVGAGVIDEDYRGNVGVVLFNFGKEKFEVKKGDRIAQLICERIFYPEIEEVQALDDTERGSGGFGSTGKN

SMILES	pIC50 ([1]; concentration inhibiting 50% of [5-3H]dUMP production by human dUTPase, 37° C., 15 minutes)	dUTPase inhibitory activity (in words) ([1]; human dUTPase)	enhancing activity for anti-tumor effect of TS-1 [2]
CC[C@@H](NS(=O)(=O)CCCn1ccc(=O)[nH]c1=O)c1cccc(OCC2CC2)c1 [Compound 19, (R)—N-(1-(3-(cyclopropylmethoxy)phenyl)propyl)-3-(2,4-dioxo-3,4-dihydropyrimidin-1(2H)-yl)propane-1-sulfonamide]	6.21	–	–
O=c1ccn(COCCCC2(NS(=O)(=O)c3cccc(OCC4CC4)c3)CC2)c(=O)[nH]1 [Comparative Compound 1, 3-(cyclopropylmethoxy)-N-(1-(3-((2,4-dioxo-3,4-dihydropyrimidin-1(2H)-yl)methoxy)propyl)cyclopropyl)benzenesulfonamide]	–	strong	not observed
